Patent US8114895B2, “Use of bipyridine compound ‘Caerulomycin A’ derivatives and analogs thereof as immunosuppressive agents” (Council of Science and Industrial Research, priority 2005, dated 2012)

What was measured:
D10G4.1 Th2 clones = assay: IL-4 release by Th2 clones; format: cell-based; settings: stimulated with anti-CD3 Ab (0.1 and 0.5 μg/ml) or conalbumin pulsed APC
thymocytes = assay: Expression of CD69 on mouse thymocytes; format: cell-based, BALB/c mice; settings: ConA 1 and 5 μg/ml, 24 h
Protocol: The expression of CD69 was detected on the surface of thymocytes in the presence of Caerulomycin A. Thymocytes were obtained from 3-4 weeks old BALB/c mice. Thymocytes (4×10^6 cells/well) were stimulated with 1 μg/ml and 5 μg/ml of ConA for 24 h in the presence and absence of Caerulomycin A at 37° C. The cells were stained with PE labeled anti-mouse CD69 Ab. The stained cells were acquired on a FACScan as mentioned in the case of CD28/CTLA-4.

naïve CD4^+ T cells = assay: Proliferation of naïve CD4+ T cells; format: cell-based
Protocol: Examples establishing the role of Caerulomycin A [isolated from a novel species of Actinoalloteichus] in inducing immunosuppression based on the following: • Splenocytes of BALB/c mice were stimulated with either ConA (1 μg/ml and 2 μg/ml) or LPS (5 μg/ml and 10 μg/ml) and were cultured with different concentrations of Caerulomycin A (0.0003-0.1 μg/ml). After 48 h, the cultures were pulsed with 0.5 μCi of [^3H]-thymidine and harvested 14 h later by automatic cell harvester. Radioactivity incorporated was measured by liquid scintillation counting. • Antigen ovalbumin (100 μg/ml) emulsified in Freund's complete adjuvant was injected in a group consisting of 5 BALB/c mice. […] Radioactivity incorporated was measured by liquid scintillation. The culture supernatants were collected after 48 h and cytokines were measured by ELISA. • Immunosuppressive effect of different doses of Caerulomycin A was monitored on naïve CD4^+ T cells, antigen reactive CD4^+ T cells, Th2 clone and Th1 hybridoma. […] Radioactivity incorporated was measured by liquid scintillation. • Immunosuppressive effect of Caerulomycin A on MLR reaction. […] After 4 days, the cultures were pulsed with 1 μCi of [^3H]-thymidine and harvested 16 h later and radioactivity incorporated was measured by liquid scintillation counting. • In vivo immunosuppressive effect of Caerulomycin A on the proliferation of T cells. […]

[1] = Funk and Divekar 1959; cited from earlier work
Th1 cells (3DO.54.8) = assay: Proliferation of Th1 cells; format: cell-based; settings: anti-CD3 Ab 10 μg/ml; 24 h
Protocol: Th1 cells (1×10^4 cells/well) were stimulated with anti-CD3 Ab (10 μg/ml) and different doses Caerulomycin A. After 24 h, [^3H]-thymidine was added, and its incorporation was measured 8 h later.

COc1cc(/C=N/O)nc(-c2ccccn2)c1 [Caerulomycin A, (E)-4-methoxy-2,2′-bipyridine-6-carbaldehyde oxime]
release of IL-4 (D10G4.1 Th2 clones): suppressed the release | expression of CD69 (thymocytes): no change in the expression | in vitro proliferation of naïve CD4+ T cells (naïve CD4^+ T cells): suppression | antibacterial activity [1]: mild antibacterial activity | antifungal activity [1]: strong antifungal activity | proliferation of Th1 cells (Th1 cells (3DO.54.8)): inhibited the proliferation
